Values belong to the molecule of their own block, whether it stands above or below them. No end group written: not given here.
What was measured:
[1] = Serum stability of PD-L1 targeting peptides; assay type: in vitro ADME; conditions: incubated with whole serum obtained from mice up to 24h; HPLC peptide peak
Description: Mouse blood was collected and allowed to cloth using a microtube for 15-20 min in RT. Serum was then centrifuged at 12000rpm at 4 °C. The upper portion (serum) was collected for testing the peptide stability. The incubated samples were diluted 100-fold and fractionated by C18 reverse phage high performance liquid chromatography (HPLC) with a linear gradient of acetonitrile (0.1% trifluoroacetate in water for equilibration and 0.1% trifluoroacetate in acetonitrile for elution). The peptide peak was collected and vacuum dried.
To measure the KD values of the peptides SPR assays were performed using a streptavidin chip coated with biotin-peptides (FIG. 3a and FIG. 3b). Four different concentrations of PD-L1 binding peptides were for PD-L1Pep-2. […] PD-L1 expression was then knocked down in the MDA-MB231 cell expressing PD-L1. siRNA was tested at different concentration (FIG. 3d). […] To further examine the stability of PD-L1 binding peptides, the peptide was incubated with whole serum obtained from mice up to 24h.

[2] = system: CT26 mouse syngeneic colon tumor model; test: Combination therapy of PD-L1 binding peptides with doxorubicin (tumor volume, body weight, survival, immune cell analysis by flow cytometry); assay type: in vivo
Description: (§1) 6-8-week-old WT Balb/c mice were purchased. Mice was cared and maintained under the guidelines of the Institutional Animal Care and Use Committee (IACUC) of Kyungpook National University (2014-0001-8.). Tumor was injected onto the lower right flank of the mice. For the in-vivo homing imaging, the tumor was developed for 7 days, after the tumor size reached to 100mm^3, the mice were injected with 100µl of 100mM Flamma-675 NIR fluorescence dye labelled peptides and allow the complete circulation for an hour. After incubation, the mice were anesthetized, and the image was taken using the IVIS imaging system. After completing the imaging, the mice were sacrificed and the tumor along with the other organs were isolated out and subjected to ex-vivo imaging using the IVIS imaging machine. For the antitumor therapy the mice were randomized and grouped after the tumor size was reached to approximately 100mm^3. The peptide was then injected intravenously (5mg/kg) 100µg/mice for 3 weeks, 3 injections/ week. Doxorubicin was injected intraperitoneal (4mg/kg) once a week. Tumor size was measured using a digital caliper, and the tumor volume was calculated using the formula (Volume ¼(L-W-H)/2. (Length: longest dimension, Width: shorter dimension, parallel to the mouse body and Height: perpendicular to the length and width). All mice were checked for the ulceration and at the end of the treatment and the mice were sacrificed for the immune cell analysis.
(§2) Tumors were isolated, minced and incubated with a digestion buffer containing collagenase D (5mg/ml) with the RPMI-1640 medium at 37 °C for 40min. The cell suspension was passed through a cell strainer. The single cell suspension was made ready to use and CD45 antibody was used to stain the tumor infiltrating leukocytes and then analyzed with following antibodies for CD4, CD8 and F4/80. The stained cells were then subjected to flow cytometry (Novocyte).
To enhance the efficacy of immunotherapy with PD-L1-binding peptides, the present inventors combined the peptides with doxorubicin, a chemotherapeutic agent known to induce immunogenic cell death, in CT26 mouse syngeneic colon tumor model. PD-L1 peptides doses were reduced from 12 injections to 9 injections and doxorubicin was given once a week (FIG. 6a). The combination therapy controlled the tumor volume more drastically compared to the previous single treatment (FIG. 6b). In addition, the combination therapy maintained the body weight unchanged compared to the control group, and increased the survival percentage (FIG. 6c and FIG. 6d).

[3] = system: CT26 syngeneic mouse model; test: Antitumor therapy with PD-L1 binding peptides alone (tumor volume, body weight, survival, immune cell analysis, immunostaining); assay type: in vivo; conditions: peptide intravenously every alternative day for 24 days; compared to the control peptide and PBS group
Description: as §1, with “After completing the imaging, the mice were sacrificed and the tumor along with the other organs were isolated out and subjected to ex-vivo imaging using the IVIS imaging machine. For the antitumor therapy the mice were randomized and grouped after the tumor size was reached to approximately 100mm^3. The peptide was then injected intravenously (5mg/kg) 100µg/mice for 3 weeks, 3 injections/ week. Doxorubicin was injected intraperitoneal (4mg/kg) once a week.” left out, “analysis. […]” for “analysis.”
as §2, with “The cell suspension was passed through a cell strainer.” left out, “The stained cells were then subjected to flow cytometry (Novocyte).” left out

[4] = target: T1, GFP-tagged PD-L1 transiently overexpressed on Hek-293T cells (human, UniProt Q9NZQ7 19-290); test: phage peptide display selection on PD-L1 overexpressing cells
T1 construct: whole, on cells; also called PD-L1-overexpressing cells; not shown: GFP tag
T1 sequence (Q9NZQ7 19-290): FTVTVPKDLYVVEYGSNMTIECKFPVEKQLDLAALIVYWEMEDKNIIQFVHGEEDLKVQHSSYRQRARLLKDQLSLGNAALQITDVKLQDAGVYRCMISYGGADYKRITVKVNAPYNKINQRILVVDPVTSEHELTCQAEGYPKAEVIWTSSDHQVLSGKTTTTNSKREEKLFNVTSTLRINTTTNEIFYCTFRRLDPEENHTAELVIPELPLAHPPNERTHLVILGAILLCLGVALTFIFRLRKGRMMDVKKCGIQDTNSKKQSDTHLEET

PD-L1 on MDA-MB231 cells = target: T2, PD-L1 on MDA-MB231 cells (human, UniProt Q9NZQ7 19-290); test: immunofluorescence and flow cytometry, FITC-peptide on MDA-MB231 cells
T2 construct: whole, on cells; also called MDA-MB 231 cells expressing PD-L1
T2 sequence (Q9NZQ7 19-290): as above

[5] = target: T1, GFP-tagged PD-L1 transiently …; test: immunofluorescence, FITC-peptide on transfected HEK 293T cells
[6] = 'from' value of the printed increase, apparently single peptide treatment
[7] = 'to' value of the printed increase, apparently combination with doxorubicin

time the peptide peak remained intact in serum [1]: 4 h
Molecule: CVRARTR [PD-L1Pep-2, CVRARTR]

Molecule: CLQKTPKQC [PD-L1Pep-1]
time the peptide peak remained intact in serum [1]: 8 h
CD4+ T cells in tumor tissue [2, 6]: 0.4%
expression percentage of CD8+ T cells in tumor tissue [2, 6]: 1.5%
CD4+ T cells in tumor tissue [2, 7]: 6%
expression percentage of CD8+ T cells in tumor tissue [2, 7]: 6.2%
tumor volume [3]: robust effect

binding result [4]: binds
binding result (PD-L1 on MDA-MB231 cells): binds
B1: PD-L1Pep-1 (peptide)
peptide: CLQKTPKQC
modifications: cysteine pairing not given here; also: N-terminal FITC, biotin or Flamma-675 according to assay
notes: also called PBP

binding result [5]: binds
binding result (PD-L1 on MDA-MB231 cells): binds
B2: PD-L1Pep-2 (peptide)
peptide: CVRARTR
modifications: also: N-terminal FITC, biotin or Flamma-675 according to assay
notes: Synthetic 7mer (CVRARTR); also called PBP
